#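 Following 48 hours of exposure in 96-well plates, responses at five concentrations were used to interpolate endpoints linearly. TGI: total growth inhibition.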
# Experiments:
# Assay in all cases: NCI-60 cell line screen, 48 h
# 786-0 renal = test system: 786-0 renal
# A549 NSCLC = test system: A549 NSCLC
# ACHN renal = test system: ACHN renal
# CAKI-1 renal = test system: CAKI-1 renal
# CCRF-CEM leukemia = test system: CCRF-CEM leukemia
# COLO 205 colon = test system: COLO 205 colon
# DLD-1 colon = test system: DLD-1 colon
# EKVX NSCLC = test system: EKVX NSCLC
# HCT-116 colon = test system: HCT-116 colon
# HL-60(TB) leukemia = test system: HL-60(TB) leukemia
# HOP-18 NSCLC = test system: HOP-18 NSCLC
# HOP-92 NSCLC = test system: HOP-92 NSCLC
# HT29 colon = test system: HT29 colon
# IGROV1 ovarian = test system: IGROV1 ovarian
# K-562 leukemia = test system: K-562 leukemia
# KM12 colon = test system: KM12 colon
# KM20L2 colon = test system: KM20L2 colon
# LOX IMVI melanoma = test system: LOX IMVI melanoma
# LXFL 529 NSCLC = test system: LXFL 529 NSCLC
# M14 melanoma = test system: M14 melanoma
# MOLT-4 leukemia = test system: MOLT-4 leukemia
# NCI-H226 lung = test system: NCI-H226 lung
# NCI-H23 lung = test system: NCI-H23 lung
# NCI-H460 lung = test system: NCI-H460 lung
# NCI-H522 lung = test system: NCI-H522 lung
# OVCAR-3 ovarian = test system: OVCAR-3 ovarian
# OVCAR-4 ovarian = test system: OVCAR-4 ovarian
# OVCAR-5 ovarian = test system: OVCAR-5 ovarian
# OVCAR-8 ovarian = test system: OVCAR-8 ovarian
# RPMI-8226 leukemia = test system: RPMI-8226 leukemia
# RXF 393 renal = test system: RXF 393 renal
# RXF-631 renal = test system: RXF-631 renal
# SF-268 CNS = test system: SF-268 CNS
# SF-295 CNS = test system: SF-295 CNS
# SF-539 CNS = test system: SF-539 CNS
# SK-MEL-2 melanoma = test system: SK-MEL-2 melanoma
# SK-MEL-28 melanoma = test system: SK-MEL-28 melanoma
# SK-MEL-5 melanoma = test system: SK-MEL-5 melanoma
# SK-OV-3 ovarian = test system: SK-OV-3 ovarian
# SN12C renal = test system: SN12C renal
# SNB-19 CNS = test system: SNB-19 CNS
# SNB-75 CNS = test system: SNB-75 CNS
# SNB-78 CNS = test system: SNB-78 CNS
# SR leukemia = test system: SR leukemia
# SW-620 colon = test system: SW-620 colon
# TK-10 renal = test system: TK-10 renal
# UACC-257 melanoma = test system: UACC-257 melanoma
# UACC-62 melanoma = test system: UACC-62 melanoma
# UO-31 renal = test system: UO-31 renal
# XF 498 CNS = test system: XF 498 CNS
# A498 renal = test system: A498 renal
# DMS 114 small cell lung = test system: DMS 114 small cell lung
# DMS 273 small cell lung = test system: DMS 273 small cell lung
# HCC-2998 colon = test system: HCC-2998 colon
# HCT-15 colon = test system: HCT-15 colon
# HOP-62 NSCLC = test system: HOP-62 NSCLC
# M19-MEL melanoma = test system: M19-MEL melanoma
# MALME-3M melanoma = test system: MALME-3M melanoma
# U251 CNS = test system: U251 CNS
structure (smiles),measurement,setting,value
C[C@H](C(=O)C12CC3CC(CC(C3)C1)C2)[C@H](O)c1ccccc1,TGI,786-0 renal,55.7 µM
same,TGI,A549 NSCLC,> 100 µM
same,TGI,ACHN renal,> 100 µM
same,TGI,CAKI-1 renal,91.2 µM
same,TGI,CCRF-CEM leukemia,> 100 µM
same,TGI,COLO 205 colon,28.3 µM
same,TGI,DLD-1 colon,> 100 µM
same,TGI,EKVX NSCLC,> 100 µM
same,TGI,HCT-116 colon,32.3 µM
same,TGI,HL-60(TB) leukemia,58.1 µM
same,TGI,HOP-18 NSCLC,> 100 µM
same,TGI,HOP-92 NSCLC,45.8 µM
same,TGI,HT29 colon,34.1 µM
same,TGI,IGROV1 ovarian,> 100 µM
same,TGI,K-562 leukemia,> 100 µM
same,TGI,KM12 colon,70.7 µM
same,TGI,KM20L2 colon,43.9 µM
same,TGI,LOX IMVI melanoma,32 µM
same,TGI,LXFL 529 NSCLC,> 100 µM
same,TGI,M14 melanoma,> 100 µM
same,TGI,MOLT-4 leukemia,> 100 µM
same,TGI,NCI-H226 lung,36.5 µM
same,TGI,NCI-H23 lung,> 100 µM
same,TGI,NCI-H460 lung,> 100 µM
same,TGI,NCI-H522 lung,57.8 µM
same,TGI,OVCAR-3 ovarian,63.3 µM
same,TGI,OVCAR-4 ovarian,> 100 µM
same,TGI,OVCAR-5 ovarian,56.2 µM
same,TGI,OVCAR-8 ovarian,> 100 µM
same,TGI,RPMI-8226 leukemia,> 100 µM
same,TGI,RXF 393 renal,48.3 µM
same,TGI,RXF-631 renal,> 100 µM
same,TGI,SF-268 CNS,30.2 µM
same,TGI,SF-295 CNS,> 100 µM
same,TGI,SF-539 CNS,96.5 µM
same,TGI,SK-MEL-2 melanoma,38.8 µM
same,TGI,SK-MEL-28 melanoma,31.4 µM
same,TGI,SK-MEL-5 melanoma,32 µM
same,TGI,SK-OV-3 ovarian,> 100 µM
same,TGI,SN12C renal,36.1 µM
same,TGI,SNB-19 CNS,> 100 µM
same,TGI,SNB-75 CNS,75.9 µM
same,TGI,SNB-78 CNS,> 100 µM
same,TGI,SR leukemia,78.4 µM
same,TGI,SW-620 colon,> 100 µM
same,TGI,TK-10 renal,> 100 µM
same,TGI,UACC-257 melanoma,78.4 µM
same,TGI,UACC-62 melanoma,> 100 µM
same,TGI,UO-31 renal,73.5 µM
same,TGI,XF 498 CNS,67.7 µM
O=C(CCc1nnc2s/c(=C\c3ccccc3[N+](=O)[O-])c(=O)n12)Nc1cc(Cl)c(Cl)cc1Cl,TGI,786-0 renal,31.3 µM
same,TGI,A498 renal,53.6 µM
same,TGI,A549 NSCLC,> 100 µM
same,TGI,ACHN renal,> 100 µM
same,TGI,CCRF-CEM leukemia,82.6 µM
same,TGI,COLO 205 colon,> 100 µM
same,TGI,DLD-1 colon,66.6 µM
same,TGI,DMS 114 small cell lung,> 100 µM
same,TGI,DMS 273 small cell lung,> 100 µM
same,TGI,EKVX NSCLC,> 100 µM
same,TGI,HCC-2998 colon,> 100 µM
same,TGI,HCT-116 colon,31.4 µM
same,TGI,HCT-15 colon,> 100 µM
same,TGI,HOP-18 NSCLC,94.4 µM
same,TGI,HOP-62 NSCLC,64.1 µM
same,TGI,HOP-92 NSCLC,51.2 µM
same,TGI,HT29 colon,> 100 µM
same,TGI,IGROV1 ovarian,> 100 µM
same,TGI,K-562 leukemia,72 µM
same,TGI,KM12 colon,43.4 µM
same,TGI,KM20L2 colon,> 100 µM
same,TGI,LOX IMVI melanoma,46.9 µM
same,TGI,LXFL 529 NSCLC,53.8 µM
same,TGI,M14 melanoma,> 100 µM
same,TGI,M19-MEL melanoma,> 100 µM
same,TGI,MALME-3M melanoma,> 100 µM
same,TGI,MOLT-4 leukemia,71.6 µM
same,TGI,NCI-H226 lung,40.6 µM
same,TGI,NCI-H23 lung,> 100 µM
same,TGI,NCI-H460 lung,75.7 µM
same,TGI,NCI-H522 lung,> 100 µM
same,TGI,OVCAR-3 ovarian,35.8 µM
same,TGI,OVCAR-4 ovarian,34.6 µM
same,TGI,OVCAR-5 ovarian,> 100 µM
same,TGI,OVCAR-8 ovarian,89.9 µM
same,TGI,RXF 393 renal,57.6 µM
same,TGI,RXF-631 renal,> 100 µM
same,TGI,SF-268 CNS,78.1 µM
same,TGI,SF-295 CNS,49.5 µM
same,TGI,SF-539 CNS,46 µM
same,TGI,SK-MEL-2 melanoma,> 100 µM
same,TGI,SK-MEL-28 melanoma,> 100 µM
same,TGI,SK-MEL-5 melanoma,> 100 µM
same,TGI,SK-OV-3 ovarian,> 100 µM
same,TGI,SN12C renal,63.8 µM
same,TGI,SNB-19 CNS,74.3 µM
same,TGI,SNB-75 CNS,55.8 µM
same,TGI,SNB-78 CNS,> 100 µM
same,TGI,TK-10 renal,87.9 µM
same,TGI,U251 CNS,30.8 µM
same,TGI,UACC-257 melanoma,> 100 µM
same,TGI,UACC-62 melanoma,> 100 µM
same,TGI,UO-31 renal,91.4 µM
same,TGI,XF 498 CNS,58 µM

# Reference: PubChem BioAssay (NCI)
